Where a chain is given by its changes, count along the chain named. Several values for one entry are separate records, joined by “and”; a condition that tells them apart may be missing. Equal entries are not always repeated.
Columns and labels:
[1] = biological target: T1, FKBP51 WT (FK1 domain) (Homo sapiens, UniProt Q13451); experiment: Fluorescence polarization tracer binding, FKBP51 WT; settings: for Fold change in Kd improvement: FKBP51 WT (reference); for Kd: FKBP51 WT, 0.5 nM SAFit-FL, 5 nM Mcyc-TA or 1 nM FK [431]-TA, 30 min room temperature, 3 independent experiments
T1 construct: made in house; host or cells: E. coli BL21 (DE3)
T1 sequence (Q13451 1-140): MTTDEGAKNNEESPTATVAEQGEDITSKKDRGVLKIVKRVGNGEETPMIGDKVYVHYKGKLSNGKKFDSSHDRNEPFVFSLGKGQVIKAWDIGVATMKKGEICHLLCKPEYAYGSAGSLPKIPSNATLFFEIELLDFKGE
Excerpt: (§1) All ligands and tracers used for fluorescence polarization assays had purities of more than 95%. The following ligands and tracers were used for fluorescence polarization and FACS screening experiments: •SAFit-FL tracer (1): Fluorescein conjugated analog of the iFit ligand class. •Mcyc-TA tracer (2): TAMRA conjugated macrocyclic ligand (5). •FK [431]-TA tracer (3): TAMRA conjugated FK [431] ligand (6). •SAFit1 ligand (4): analog of the iFit ligand class. •macrocyclic ligand (5):macrocyclic analog of the SAFit class ligands. •FK [431] ligand (6):bicyclic analog of the immunosuppressive drug FK506
(§2) The binding of the generated FKBP51 variants to different conformation-sensitive FKBP ligands was investigated by fluorescence polarization assays. Therefore, a serial dilution of the respective FKBP51 variant in assay buffer (20 mM HEPES pH 8.0, 150 mM NaCl, 0.015% Triton X-100) was placed in a 384-well assay plate and a defined amount of the respective fluorescent tracer (0.5 nM of the SAFit based tracer SAFit-FL (1), 5 nM of the macrocyclic tracer Mcyc-TA 2) or 1 nM of the FK [431]-TA 3) in assay buffer was added to the protein buffer mixture. After incubation for 30 min at room temperature, the fluorescence polarization was measured with a plate reader. The obtained results for each 3 independent experiments were normalized with respect to the maximal binding signal and fitted to a one-site binding model as described by [Wang et al., 1992] yielding the respective binding constants. tracer bound=100/Lt×0.5×(Rt+Lt+KD−(Rt+Lt+KD)^2−4×LtRt) With L t , total concentration of the tracer, R t , total concentration of the receptor and K D binding constant of the complex RL.

[2] = biological target: T2, FKBP51 variant G64D (Homo sapiens, UniProt Q13451, G64D); experiment: Fluorescence polarization tracer binding, FKBP51 G64D; settings: for Fold change in Kd improvement: FKBP51 G64D compared to WT; for Kd: FKBP51 G64D, 0.5 nM SAFit-FL, 5 nM Mcyc-TA or 1 nM FK [431]-TA, 30 min room temperature
T2 construct: made in house; host or cells: E. coli BL21 (DE3)
T2 sequence (Q13451 1-140 G64D): T1 sequence (Q13451 1-140) with G64D
Excerpt: as §1, §2

[3] = biological target: T3, FKBP51 variant G64E (Homo sapiens, UniProt Q13451, G64E); experiment: Fluorescence polarization tracer binding, FKBP51 G64E; settings: for Fold change in Kd improvement: FKBP51 G64E compared to WT; for Kd: FKBP51 G64E, 0.5 nM SAFit-FL, 5 nM Mcyc-TA or 1 nM FK [431]-TA, 30 min room temperature
T3 construct: made in house; host or cells: E. coli BL21 (DE3)
T3 sequence (Q13451 1-140 G64E): T1 sequence (Q13451 1-140) with G64E
Excerpt: as §1, §2

[4] = biological target: T4, FKBP51 variant G64R (Homo sapiens, UniProt Q13451, G64R); experiment: Fluorescence polarization tracer binding, FKBP51 G64R; settings: for Fold change in Kd improvement: FKBP51 G64R compared to WT; for Kd: FKBP51 G64R, 0.5 nM SAFit-FL, 5 nM Mcyc-TA or 1 nM FK [431]-TA, 30 min room temperature
T4 construct: made in house; host or cells: E. coli BL21 (DE3)
T4 sequence (Q13451 1-140 G64R): T1 sequence (Q13451 1-140) with G64R
Excerpt: as §1, §2

[5] = biological target: T5, FKBP51 variant F67E (Homo sapiens, UniProt Q13451, F67E); experiment: Fluorescence polarization tracer binding, FKBP51 F67E; settings: for Kd: FKBP51 F67E, 0.5 nM SAFit-FL, 5 nM Mcyc-TA or 1 nM FK [431]-TA, 30 min room temperature
T5 construct: made in house; host or cells: E. coli BL21 (DE3)
T5 sequence (Q13451 1-140 F67E): T1 sequence (Q13451 1-140) with F67E
Excerpt: as §1, §2

[6] = biological target: T6, FKBP51 variant F67R (Homo sapiens, UniProt Q13451, F67R); experiment: Fluorescence polarization tracer binding, FKBP51 F67R; settings: for Fold change in Kd improvement: FKBP51 F67R compared to WT; for Kd: FKBP51 F67R, 0.5 nM SAFit-FL, 5 nM Mcyc-TA or 1 nM FK [431]-TA, 30 min room temperature
T6 construct: made in house; host or cells: E. coli BL21 (DE3)
T6 sequence (Q13451 1-140 F67R): T1 sequence (Q13451 1-140) with F67R
Excerpt: as §1, §2

[7] = biological target: T7, FKBP51 variant F67S (Homo sapiens, UniProt Q13451, F67S); experiment: Fluorescence polarization tracer binding, FKBP51 F67S; settings: for Fold change in Kd improvement: FKBP51 F67S compared to WT; for Kd: FKBP51 F67S, 0.5 nM SAFit-FL, 5 nM Mcyc-TA or 1 nM FK [431]-TA, 30 min room temperature
T7 construct: made in house; host or cells: E. coli BL21 (DE3)
T7 sequence (Q13451 1-140 F67S): T1 sequence (Q13451 1-140) with F67S
Excerpt: as §1, §2

[8] = biological target: T8, FKBP51 variant F67W (Homo sapiens, UniProt Q13451, F67W); experiment: Fluorescence polarization tracer binding, FKBP51 F67W; settings: for Fold change in Kd improvement: FKBP51 F67W compared to WT
T8 construct: made in house; host or cells: E. coli BL21 (DE3)
T8 sequence (Q13451 1-140 F67W): T1 sequence (Q13451 1-140) with F67W
Excerpt: as §1, §2

[9] = biological target: T9, FKBP51 variant D68Y (Homo sapiens, UniProt Q13451, D68Y); experiment: Fluorescence polarization tracer binding, FKBP51 D68Y; settings: for Fold change in Kd improvement: FKBP51 D68Y compared to WT; for Kd: FKBP51 D68Y, 0.5 nM SAFit-FL, 5 nM Mcyc-TA or 1 nM FK [431]-TA, 30 min room temperature
T9 construct: made in house; host or cells: E. coli BL21 (DE3)
T9 sequence (Q13451 1-140 D68Y): T1 sequence (Q13451 1-140) with D68Y
Excerpt: as §1, §2

| SMILES | Fold change in Kd improvement [1] [fold] | Kd [1] [nM] | Fold change in Kd improvement [2] [fold] | Kd [2] [nM] | Fold change in Kd improvement [3] [fold] | Kd [3] [nM] | Fold change in Kd improvement [4] [fold] | Kd [4] [nM] | Fold change in Kd improvement ([5]; FKBP51 F67E compared to WT) [fold] | Kd [5] [nM] | Fold change in Kd improvement [6] [fold] | Kd [6] [nM] | Fold change in Kd improvement [7] [fold] | Kd [7] [nM] | Fold change in Kd improvement [8] [fold] | Fold change in Kd improvement [9] | Fold change in Kd improvement ([9]; listed as 3) | Kd [9] [nM] | Kd ([8]; FKBP51 F67W, 0.5 nM SAFit-FL, 5 nM Mcyc-TA or 1 nM FK [431]-TA, 30 min room temperature) [nM] |
| --- | --- | --- | --- | --- | --- | --- | --- | --- | --- | --- | --- | --- | --- | --- | --- | --- | --- | --- | --- |
| CN(C)c1ccc2c(-c3cc(C(=O)NCCn4cc([C@H]5CN(Cc6ccccn6)C(=O)[C@@H]6CCC[C@H]5N6S(=O)(=O)c5cc(Cl)cc(Cl)c5)nn4)ccc3C(=O)O)c3ccc(=[N+](C)C)cc-3oc2c1 [FK [431]-TA] | 1 | 5.1 ± 0.1 | 0.300 | 17 ± 1 | 0.268 | 19 ± 1 | 0.159 | 32 ± 2 | 0.004 | 1330 ± 66 | 0.016 | 312 ± 14 | 0.004 | 1240 ± 60 | 0.004 | 0.134 fold | no improvement | 38 ± 2 | – |
| COc1ccc(CC[C@H]2OC(=O)[C@@H]3CCCCN3C(=O)[C@@H](C3CCCCC3)NC(=O)C(C)(C)NC(=O)COc3cc(OCCNC(=O)c4ccc(C(=O)O)c(-c5c6ccc(=[N+](C)C)cc-6oc6cc(N(C)C)ccc56)c4)cc2c3)cc1OC [Mcyc-TA] | 1.00 | 24 ± 2 | 2.76 | 8.7 ± 1 | 7.27 | 3.3 ± 0.3 | 2.42 | 9.9 ± 1 | – | 5 ± 0.5 | 1.00 | 24 ± 3 | 1.14 | 21 ± 2 | 1.50 | 34 fold and 34.29 fold | – | 0.7 ± 0.1 | 16 ± 1 |

From publication PMC9676650, “Binding pocket stabilization by high-throughput screening of yeast display libraries” (Frontiers in Molecular Biosciences, 2022)
